Data taken from article PMC4869175, “Evidence that phytochrome functions as a protein kinase in plant light signalling” (Nature Communications, 2016).

Biological target: T1, full-length AsphyA (Avena sativa, UniProt P06593)
T1 construct: Full-length phytochrome genes of AsPHYA; made in house; host or cells: Pichia pastoris GS115
T1 sequence (P06593 1-1129): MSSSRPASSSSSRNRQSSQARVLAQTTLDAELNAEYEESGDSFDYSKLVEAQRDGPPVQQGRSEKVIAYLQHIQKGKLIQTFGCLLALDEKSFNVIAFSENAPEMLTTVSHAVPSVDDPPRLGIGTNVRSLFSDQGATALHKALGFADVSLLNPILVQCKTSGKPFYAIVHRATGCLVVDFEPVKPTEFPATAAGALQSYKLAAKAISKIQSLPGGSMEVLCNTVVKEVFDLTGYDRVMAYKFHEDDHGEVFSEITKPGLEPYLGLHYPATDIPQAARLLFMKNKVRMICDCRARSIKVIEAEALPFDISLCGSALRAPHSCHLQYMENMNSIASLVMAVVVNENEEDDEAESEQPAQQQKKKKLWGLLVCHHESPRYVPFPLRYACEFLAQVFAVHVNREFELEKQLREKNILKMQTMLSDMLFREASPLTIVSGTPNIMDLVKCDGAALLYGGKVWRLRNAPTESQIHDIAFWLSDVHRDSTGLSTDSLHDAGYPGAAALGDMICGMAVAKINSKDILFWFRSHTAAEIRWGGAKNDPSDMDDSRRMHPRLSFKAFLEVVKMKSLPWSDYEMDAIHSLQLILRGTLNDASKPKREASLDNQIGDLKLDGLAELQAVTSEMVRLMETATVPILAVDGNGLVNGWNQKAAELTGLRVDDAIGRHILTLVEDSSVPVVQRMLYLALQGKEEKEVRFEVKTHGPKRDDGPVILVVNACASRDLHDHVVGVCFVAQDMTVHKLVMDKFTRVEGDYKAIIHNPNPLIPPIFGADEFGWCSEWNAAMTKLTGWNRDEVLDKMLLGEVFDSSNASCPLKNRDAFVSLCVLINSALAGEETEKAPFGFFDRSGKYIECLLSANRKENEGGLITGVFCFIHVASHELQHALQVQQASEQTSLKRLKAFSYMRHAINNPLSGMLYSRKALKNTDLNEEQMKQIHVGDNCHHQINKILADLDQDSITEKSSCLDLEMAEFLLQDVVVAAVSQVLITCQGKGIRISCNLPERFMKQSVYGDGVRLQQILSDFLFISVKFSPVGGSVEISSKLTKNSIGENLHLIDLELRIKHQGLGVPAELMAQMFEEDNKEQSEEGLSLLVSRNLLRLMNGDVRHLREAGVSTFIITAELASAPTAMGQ
Assay: Binding parameters of ATP by Scatchard plot using BODIPY-FL-ATP
Settings: as restated in Discussion; Scatchard plot with BODIPY-FL-ATP; read-out: Kd value (ATP-binding site)
Method: To estimate dissociation constant (Kd) and the number of binding sites (n) of ATP in AsphyA proteins, an ATP analogue BODIPY-FL-ATP (BODIPY FL 2′-(or-3′)-O-(N-(2-aminoethyl)urethane) adenosine triphosphate; Molecular Probes) was used. 0.5 μM AsphyA proteins were incubated with increasing concentration of BODIPY-FL-ATP (0.5–5 μM) for 10 min at 30 °C, and free (unbound) ATP analogue was separated from the ATP analogue-protein complex by using Amicon Ultra Centrifugal Filter with MWCO of 10,000 Da for 5 min at 4,000g. The spectrophotometric absorbance was then measured to determine the BODIPY-FL-ATP concentrations within flow-through and the complex solutions by using Shimadzu UV-1800 spectrophotometer. […] The concentrations of BODIPY-FL-ATP were also double-checked by measuring the emission intensity of BODIPY fluorophore at the excitation wavelength of 500 nm and emission wavelength of 515 nm. The fluorescence of free BODIPY-FL-ATP in the absence of any protein component was used as a linear standard curve. The Kd and n values were then calculated by a Scatchard plot of r/[BODIPY-FL-ATP]free versus r, where r is the molar ratio of [BODIPY-FL-ATP]bound to [AsphyA]total.
Supplementary Figure 12. Determination of binding parameters of ATP in AsphyA proteins. The number of binding sites (n) and dissociation constant (Kd) of ATP in AsphyA proteins were determined by Scatchard plots using an ATP analogue, BODIPY-FL-ATP (BODIPY® FL 2′-(or-3′)-O-(N-(2-aminoethyl)urethane) adenosine triphosphate). The n and Kd values were calculated from the slopes (-1/Kd) and x-axis intercepts (n) of the Scatchard plot of r/[BODIPY-FL-ATP]free versus r, where r was the molar ratio of [BODIPY-FL-ATP]bound to [AsphyA]total. The n values of full-length (FL) AsphyA and photosensory core (66-610) were both calculated at around one per polypeptide, and the Kd values were calculated at approximately 0.87 × 10^-6 M for FL-AsphyA, 0.72 × 10^-6 M for […]
level, possibly due to too low ATP binding.
(1 picture or pasted object on this page, not shown here)

## Nc1ncnc2c1ncn2[C@@H]1O[C@H](COP(=O)(O)OP(=O)(O)OP(=O)(O)O)[C@@H](O)[C@H]1O [ATP]
  Kd: 870 nM
